# Laboratory results reported in patent publication US10813944B2, “Cyclodextrins as procoagulants” (STICHTING SANQUIN BLOEDVOORZIENING, priority 2016, dated 2020).
# Assays:
# [1] = test system: thrombin generation in pooled normal plasma spiked with anticoagulants; assay: Thrombin generation assay in pooled normal plasma spiked with anticoagulants; type: biochemical, human; settings: for effect on the anticoagulant effect of apixaban: apixaban 60 ng/ml; for effect on the anticoagulant effect of apixaban / effect on the anticoagulant effect of dabigatran / effect on the anticoagulant effect of edoxaban / effect on the anticoagulant effect of rivaroxaban: cyclodextrin 100 μM, 1 pM TF; for effect on the anticoagulant effect of dabigatran: dabigatran 100 ng/ml; for effect on the anticoagulant effect of edoxaban: edoxaban 60 ng/ml; for effect on the anticoagulant effect of rivaroxaban: rivaroxaban 100 ng/ml
# Description: (§1) FIGS. 3-8, 12, 14-19 and 22-27: Pooled normal plasma was spiked with cyclodextrins (100 μM, unless otherwise indicated) and anticoagulants. The concentrations of the anticoagulants were 100 ng/ml for dabigatran (A), 100 ng/ml for rivaroxaban (B), 60 ng/ml for apixaban (C), 60 ng/ml for edoxaban (D). The plasmas were subjected to thrombin generation analysis as described in the Materials and Methods section with 1 pM tissue factor (TF) as initiator of coagulation.
# FIG. 9: Pooled normal plasma was spiked with OKL-1111 (100 μM, unless otherwise indicated (A)) and anticoagulants (B-E). The concentrations of the anticoagulants were 100 ng/ml for dabigatran (B), 100 ng/ml for rivaroxaban (C), 60 ng/ml for apixaban (D), 60 ng/ml for edoxaban (E). The plasmas were subjected to thrombin generation analysis as described in the Materials and Methods section with 1 pM tissue factor (TF) as initiator of coagulation.
# FIG. 10: Pooled normal plasma was spiked with OKL-1111 (100 μM) and anticoagulants (A-F). The concentrations of the anticoagulants were 2 μg/ml for fondaparinux (A), 0.4 U/ml for nadroparin (B), 0.1 U/ml for tinzaparin (C), 0.03 U/ml for unfractionated heparin (UFH) (D), 0.5 U/ml for hirudin (E) and 10 μg/ml for bivalirudin (F). The plasmas were subjected to thrombin generation analysis as described in the Materials and Methods section with 1 pM tissue factor (TF) as initiator of coagulation.
# (§2) The Calibrated Automated Thrombogram® assays the generation of thrombin in clotting plasma using a microtiter plate reading fluorometer (Fluoroskan Ascent, ThermoLab systems, Helsinki, Finland) and Thrombinoscope® software (Thrombinoscope BV, Maastricht, The Netherlands). The assay was carried out as described by Hemker et al. (Pathofysiol. IIaemost. Thromb. 2003, 33, 4-15), and the Thrombinoscope® manual. Coagulation was triggered by recalcification in the presence of 1 or 5 pM recombinant human tissue factor (Innovin®, Siemens, Marburg, Germany), 4 μM phospholipids, and 417 μM fluorogenic substrate Z-Gly-Gly-Arg-AMC (Bachem, Bubendorf, Switzerland). Fluorescence was monitored using the Fluoroskan Ascent fluorometer (ThermoLabsystems, Helsinki, Finland), and the lag time, peak thrombin, velocity index and area under the curve (ETP) were calculated using the Thrombinoscope® software (Thrombinoscope BV).
# [2] = test system: thrombin generation in pooled normal plasma; assay: Calibrated Automated Thrombogram thrombin generation assay in pooled normal plasma; type: biochemical, human; settings: for procoagulant effect in normal plasma: no anticoagulant, cyclodextrin 100 μM unless otherwise indicated, 1 pM TF; for lag time / peak thrombin: normal plasma, versus absence of cyclodextrin; for procoagulant activity (overview): pooled normal plasma with and without the addition of anticoagulants
# Description: as §1, §2
# Thrombin generation analyses were performed in pooled normal plasma with and without the addition of anticoagulants.
Structure (SMILES),effect on the anticoagulant effect of apixaban [1],effect on the anticoagulant effect of dabigatran [1],effect on the anticoagulant effect of edoxaban [1],effect on the anticoagulant effect of rivaroxaban [1],procoagulant effect in normal plasma [2],lag time [2],peak thrombin [2],procoagulant effect in plasma containing anticoagulants (not specified / NOACs) [1],procoagulant activity (overview) [2]
O=C(O)CCCSCC1OC2OC3C(CSCCCC(=O)O)OC(OC4C(CSCCCC(=O)O)OC(OC5C(CSCCCC(=O)O)OC(OC6C(CSCCCC(=O)O)OC(OC7C(CSCCCC(=O)O)OC(OC8C(CSCCCC(=O)O)OC(OC9C(CSCCCC(=O)O)OC(OC1C(O)C2O)C(O)C9O)C(O)C8O)C(O)C7O)C(O)C6O)C(O)C5O)C(O)C4O)C(O)C3O (centres unmarked) [OKL-1107],completely restored or even higher than in the non-anticoagulated plasma,completely restored or even higher than in the non-anticoagulated plasma,completely restored or even higher than in the non-anticoagulated plasma,completely restored or even higher than in the non-anticoagulated plasma,strong procoagulant effects,considerably shorter,largely increased,,
O=C(O)CCCSCC1OC2OC3C(CSCCCC(=O)O)OC(OC4C(CSCCCC(=O)O)OC(OC5C(CSCCCC(=O)O)OC(OC6C(CSCCCC(=O)O)OC(OC7C(CSCCCC(=O)O)OC(OC8C(CSCCCC(=O)O)OC(OC1C(O)C2O)C(O)C8O)C(O)C7O)C(O)C6O)C(O)C5O)C(O)C4O)C(O)C3O (centres unmarked) [OKL-1105],procoagulant effects were observed,procoagulant effects were observed,procoagulant effects were observed,procoagulant effects were observed,significant procoagulant effect,,,,
"O=C(O)CCSCC1OC2OC3C(CO)OC(OC4C(CO)OC(OC5C(CO)OC(OC6C(CO)OC(OC7C(CO)OC(OC8C(CO)OC(OC9C(CO)OC(OC1C(O)C2O)C(O)C9O)C(O)C8O)C(O)C7O)C(O)C6O)C(O)C5O)C(O)C4O)C(O)C3O (centres unmarked) [OKL-1102, reference compound]",,,,,did not show procoagulant activity,,,did not show procoagulant activity,No
O=C(O)CCCCCSCC1OC2OC3C(CO)OC(OC4C(CO)OC(OC5C(CO)OC(OC6C(CO)OC(OC7C(CO)OC(OC8C(CO)OC(OC9C(CO)OC(OC1C(O)C2O)C(O)C9O)C(O)C8O)C(O)C7O)C(O)C6O)C(O)C5O)C(O)C4O)C(O)C3O (centres unmarked) [OKL-1110],fully counteracted,strongly antagonized,fully counteracted,fully counteracted,very potent procoagulant effect,,,,
OCCCSCC1OC2OC3C(CSCCCO)OC(OC4C(CSCCCO)OC(OC5C(CSCCCO)OC(OC6C(CSCCCO)OC(OC7C(CSCCCO)OC(OC8C(CSCCCO)OC(OC9C(CSCCCO)OC(OC1C(O)C2O)C(O)C9O)C(O)C8O)C(O)C7O)C(O)C6O)C(O)C5O)C(O)C4O)C(O)C3O (centres unmarked) [OKL-1146],restoration of thrombin generation to levels far above that of non-anticoagulated plasma,restoration of thrombin generation to levels far above that of non-anticoagulated plasma,restoration of thrombin generation to levels far above that of non-anticoagulated plasma,restoration of thrombin generation to levels far above that of non-anticoagulated plasma,very strong procoagulant effects,considerably shorter,largely increased,,
"O=C(O)CCSCC1OC2OC3C(CSCCC(=O)O)OC(OC4C(CSCCC(=O)O)OC(OC5C(CSCCC(=O)O)OC(OC6C(CSCCC(=O)O)OC(OC7C(CSCCC(=O)O)OC(OC8C(CSCCC(=O)O)OC(OC9C(CSCCC(=O)O)OC(OC1C(O)C2O)C(O)C9O)C(O)C8O)C(O)C7O)C(O)C6O)C(O)C5O)C(O)C4O)C(O)C3O (centres unmarked) [OKL-1170, reference compound]",,,,,did not show procoagulant activity,,,did not show procoagulant activity,No
O=C(O)CCCCCCSCC1OC2OC3C(CSCCCCCCC(=O)O)OC(OC4C(CSCCCCCCC(=O)O)OC(OC5C(CSCCCCCCC(=O)O)OC(OC6C(CSCCCCCCC(=O)O)OC(OC7C(CSCCCCCCC(=O)O)OC(OC8C(CSCCCCCCC(=O)O)OC(OC1C(O)C2O)C(O)C8O)C(O)C7O)C(O)C6O)C(O)C5O)C(O)C4O)C(O)C3O (centres unmarked) [OKL-1179],,,,,procoagulant activity,,,,
O=C(O)CCCCCSCC1OC2OC3C(CSCCCCCC(=O)O)OC(OC4C(CSCCCCCC(=O)O)OC(OC5C(CSCCCCCC(=O)O)OC(OC6C(CSCCCCCC(=O)O)OC(OC7C(CSCCCCCC(=O)O)OC(OC8C(CSCCCCCC(=O)O)OC(OC1C(O)C2O)C(O)C8O)C(O)C7O)C(O)C6O)C(O)C5O)C(O)C4O)C(O)C3O (centres unmarked) [OKL-1109],marginal or no effects,marginal or no effects,marginal or no effects,marginal or no effects,small effects,,,,
"O=C(O)CCSCC1OC2OC3C(CSCCC(=O)O)OC(OC4C(CSCCC(=O)O)OC(OC5C(CSCCC(=O)O)OC(OC6C(CSCCC(=O)O)OC(OC7C(CSCCC(=O)O)OC(OC8C(CSCCC(=O)O)OC(OC1C(O)C2O)C(O)C8O)C(O)C7O)C(O)C6O)C(O)C5O)C(O)C4O)C(O)C3O (centres unmarked) [OKL-1101, reference compound]",,,,,did not show procoagulant activity,,,did not show procoagulant activity,No
O=C(O)CCCSCC1OC2OC3C(CO)OC(OC4C(CO)OC(OC5C(CO)OC(OC6C(CO)OC(OC7C(CO)OC(OC8C(CO)OC(OC9C(CO)OC(OC1C(O)C2O)C(O)C9O)C(O)C8O)C(O)C7O)C(O)C6O)C(O)C5O)C(O)C4O)C(O)C3O (centres unmarked) [OKL-1106],less pronounced,significantly antagonized,less pronounced,significantly antagonized,procoagulant effect,,,,
"O=C(O)CCCCCSCC1OC2OC3C(CO)OC(OC4C(CO)OC(OC5C(CO)OC(OC6C(CO)OC(OC7C(CO)OC(OC1C(O)C2O)C(O)C7O)C(O)C6O)C(O)C5O)C(O)C4O)C(O)C3O (stereo not drawn) [OKL-1186, Alpha-mono-S—C6-acid]",antagonized,antagonized,antagonized,antagonized,substantial procoagulant effect,,,,
"O=C(O)CCSCC1OC2OC3C(CSCCC(=O)O)OC(OC4C(CSCCC(=O)O)OC(OC5C(CSCCC(=O)O)OC(OC6C(CSCCC(=O)O)OC(OC7C(CSCCC(=O)O)OC(OC8C(CSCCC(=O)O)OC(OC9C(CSCCC(=O)O)OC(OC1C(O)C2O)C(O)C9O)C(O)C8O)C(O)C7O)C(O)C6O)C(O)C5O)C(O)C4O)C(O)C3O (centres unmarked) [OKL-1103, reference compound]",,,,,did not show procoagulant activity,,,did not show procoagulant activity,No
O=C(O)CCCCSCC1OC2OC3C(CSCCCCC(=O)O)OC(OC4C(CSCCCCC(=O)O)OC(OC5C(CSCCCCC(=O)O)OC(OC6C(CSCCCCC(=O)O)OC(OC7C(CSCCCCC(=O)O)OC(OC8C(CSCCCCC(=O)O)OC(OC1C(O)C2O)C(O)C8O)C(O)C7O)C(O)C6O)C(O)C5O)C(O)C4O)C(O)C3O (centres unmarked) [OKL-1178],,,,,procoagulant activity,,,,
